From paper PMC5775428, “Towards an experimental classification system for membrane active peptides” (Scientific Reports, 2018)
Read-outs that look alike come from different tables or passages of the source.

What was measured:
Bacillus cereus = conditions: Bacillus cereus
How it was run: (§1)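 Broth microdilution MICs followed CLSI M7-A10 for bacteria, with peptides tested at 0.5 to 256 μM. MIC was the lowest concentration at which no cells were seen by optical microscopy. Three biological repeats, each with two technical replicates.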

Bacillus subtilis = conditions: Bacillus subtilis
How it was run: as §1

Candida albicans = conditions: Candida albicans
How it was run: (§2)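 MICs determined per CLSI M7-A10 (bacteria) and M27-A3 (yeasts) protocols, peptides tested at 0.5 to 256 μM. MIC taken as the lowest concentration with no cells seen by optical microscopy; three biological repeats with 2 technical replicates each.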

Cryptococcus neoformans = conditions: Cryptococcus neoformans
How it was run: as §2

Erwinia carotovora = conditions: Erwinia carotovora
How it was run: as §1

Escherichia coli = conditions: Escherichia coli
How it was run: as §1

Pseudomonas aeruginosa = conditions: Pseudomonas aeruginosa
How it was run: as §1

[1] = tested on: Pseudomonas syringae pv. tabaci; conditions: Pseudomonas syringae pv. tabaci
How it was run: as §1

Staphylococcus aureus = conditions: Staphylococcus aureus
How it was run: as §1

Xanthomonas campestris = tested on: Xanthomonas campestris
How it was run: as §1

[2] = cited from earlier work
[3] = cited from earlier work; remark: listed apart in the source
[4] = cited from earlier work; remark: listed apart in the source
[5] = cited from earlier work; remark: listed apart in the source
[6] = cited from earlier work; remark: listed apart in the source
[7] = cited from earlier work; remark: listed apart in the source
[8] = cited from earlier work; remark: listed apart in the source
[9] = cited from earlier work; remark: listed apart in the source
[10] = cited from earlier work; remark: listed apart in the source
[11] = cited from earlier work; remark: listed apart in the source

LHRLVKLVAALLRGYASKVDTH [Tc08]
Minimum inhibitory concentration (Bacillus cereus; CLSI M7-A10, triplicate 1): 4 µM
Minimum inhibitory concentration, Average (Bacillus cereus; average of triplicates): 6.7 µM
Minimum inhibitory concentration (Bacillus cereus; triplicate 2): 8 µM
Minimum inhibitory concentration (Bacillus cereus; triplicate 3): 8 µM
Minimum inhibitory concentration (Bacillus subtilis; CLSI M7-A10, triplicate 1): 2 µM
Minimum inhibitory concentration, Average (Bacillus subtilis; average of triplicates): 2.0 µM
Minimum inhibitory concentration (Bacillus subtilis; triplicate 2): 2 µM
Minimum inhibitory concentration (Bacillus subtilis; triplicate 3): 2 µM
Minimum inhibitory concentration (Candida albicans; CLSI M27-A3, 0.5 to 256 μM tested, triplicate 1, also published in ref 7): 4 µM
Minimum inhibitory concentration, Average (Candida albicans; average of triplicates): 4.0 µM
Minimum inhibitory concentration (Candida albicans; triplicate 2): 4 µM
Minimum inhibitory concentration (Candida albicans; triplicate 3): 4 µM
Minimum inhibitory concentration (Cryptococcus neoformans; CLSI M27-A3, triplicate 1): 8 µM
Minimum inhibitory concentration, Average (Cryptococcus neoformans; average of triplicates): 8.0 µM
Minimum inhibitory concentration (Cryptococcus neoformans; triplicate 2): 8 µM
Minimum inhibitory concentration (Cryptococcus neoformans; triplicate 3): 8 µM
Minimum inhibitory concentration (Erwinia carotovora; CLSI M7-A10, triplicate 1): 2 µM
Minimum inhibitory concentration, Average (Erwinia carotovora; average of triplicates): 3.3 µM
Minimum inhibitory concentration (Erwinia carotovora; triplicate 2): 4 µM
Minimum inhibitory concentration (Erwinia carotovora; triplicate 3): 4 µM
Minimum inhibitory concentration (Escherichia coli; CLSI M7-A10, triplicate 1): 2 µM
Minimum inhibitory concentration, Average (Escherichia coli; average of triplicates): 2.0 µM
Minimum inhibitory concentration (Escherichia coli; triplicate 2): 2 µM
Minimum inhibitory concentration (Escherichia coli; triplicate 3): 2 µM
Minimum inhibitory concentration (Pseudomonas aeruginosa; CLSI M7-A10, triplicate 1): 4 µM
Minimum inhibitory concentration, Average (Pseudomonas aeruginosa; average of triplicates): 4.0 µM
Minimum inhibitory concentration (Pseudomonas aeruginosa; triplicate 2): 4 µM
Minimum inhibitory concentration (Pseudomonas aeruginosa; triplicate 3): 4 µM
Minimum inhibitory concentration ([1]; CLSI M7-A10, triplicate 1): 4 µM
Minimum inhibitory concentration, Average ([1]; average of triplicates): 4.0 µM
Minimum inhibitory concentration ([1]; triplicate 2): 4 µM
Minimum inhibitory concentration ([1]; triplicate 3): 4 µM
Minimum inhibitory concentration (Staphylococcus aureus; CLSI M7-A10, triplicate 1): 2 µM
Minimum inhibitory concentration, Average (Staphylococcus aureus; average of triplicates): 2.0 µM
Minimum inhibitory concentration (Staphylococcus aureus; triplicate 2): 2 µM
Minimum inhibitory concentration (Staphylococcus aureus; triplicate 3): 2 µM
Minimum inhibitory concentration (Xanthomonas campestris; CLSI M7-A10, triplicate 1): 4 µM
Minimum inhibitory concentration, Average (Xanthomonas campestris; average of triplicates): 4.0 µM
Minimum inhibitory concentration (Xanthomonas campestris; triplicate 2): 4 µM
Minimum inhibitory concentration (Xanthomonas campestris; triplicate 3): 4 µM

Penetratin
H broad component, DMPC LUVs [2]: 2890 kcal/mol
Hv broad component, DMPC LUVs [3]: 295000
Hv sharp component, DMPC LUVs [4]: 1.01e+06
Tm broad component, DMPC LUVs [5]: 23.5 °C
Tm sharp component, DMPC LUVs [6]: 24.2 °C
H broad component, 2:1 DMPC:DMPG LUVs [7]: 2560 kcal/mol
H sharp component, 2:1 DMPC:DMPG LUVs [8]: 3360 kcal/mol
Hv broad component, 2:1 DMPC:DMPG LUVs [9]: 116000
Tm broad component, 2:1 DMPC:DMPG LUVs [10]: 26.6 °C
Tm sharp component, 2:1 DMPC:DMPG LUVs [11]: 24.5 °C

Syphaxin
H broad component, DMPC LUVs [2]: 2260 kcal/mol
Hv broad component, DMPC LUVs [3]: 120000
Hv sharp component, DMPC LUVs [4]: 383000
Tm broad component, DMPC LUVs [5]: 25.4 °C
Tm sharp component, DMPC LUVs [6]: 21.9 °C
H broad component, 2:1 DMPC:DMPG LUVs [7]: 3240 kcal/mol
H sharp component, 2:1 DMPC:DMPG LUVs [8]: 197 kcal/mol
Hv broad component, 2:1 DMPC:DMPG LUVs [9]: 101000
Tm broad component, 2:1 DMPC:DMPG LUVs [10]: 25.4 °C
Tm sharp component, 2:1 DMPC:DMPG LUVs [11]: 22.8 °C
